# Literature values, collected in patent publication US20120277156A1, “INHIBITION OF PATHOLOGICAL BONE FORMATION” (priority 2009, published 2012).
# Test system: proprioception
# Conditions: rat, in vivo
smiles,measurement,value
CCN(CC)CC(=O)Nc1c(C)cccc1C [lidocaine],time by which function was fully recovered,≤ 120 min
